From patent US20130324412A1, “N-ALKOXYAMIDES OF 6-(SUBSTITUTED PHENYL)-4-AMINOPICOLINATES AND 2-(SUBSTITUTED PHENYL)-6-AMINO-4-PYRIMIDINECARBOXYLATES AND THEIR USE AS SELECTIVE HERBICIDES FOR CROPS” (DOW AGROSCIENCES LLC, priority 2009, published 2013)

Key:
Format in all cases: in vivo
[1] = system: corn (Zea mays); assay: Postemergence herbicidal activity in corn, crop; details: visual rating after 21 d, probit analysis, dose to kill or control 20 percent
Description: (§1) Seeds of corn and the desired weed species were planted in Sun Gro MetroMix 360 planting mixture, which typically has a pH of 6.0 to 6.8 and an organic matter content of about 30 percent, in plastic pots with a surface area of 95 cm^2. When required to ensure good germination and healthy plants, a fungicide treatment and/or other chemical or physical treatment was applied. The plants were grown for 7-21 d in a greenhouse with an approximate 15-h photoperiod which was maintained at about 23-29° C. during the day and 22-28° C. during the night. Nutrients and water were added on a regular basis and supplemental lighting was provided with overhead metal halide 1000-Watt lamps as necessary. The corn plants were utilized for testing when they reached the second true leaf stage. The weed species were utilized at the first or second true leaf stage.
(§2) A weighed amount, determined by the highest rate to be tested, of each test compound was dissolved in 4 mL of a 97:3 v/v mixture of acetone and DMSO to obtain concentrated stock solutions. […] The concentrated stock solutions obtained were diluted with 20 mL of an aqueous mixture containing acetone, water, isopropyl alcohol, DMSO, Atplus 411F crop oil concentrate, and Triton X-155 surfactant in a 48.5:39:10:1.5:1.0:0.02 v/v ratio to obtain spray solutions containing the highest application rates. […]
(§3) The treated plants and control plants were placed in a greenhouse as described above and watered by sub-irrigation to prevent wash-off of the test compounds. After 21 d, the condition of the test plants as compared with that of the untreated plants was determined visually and scored on a scale of 0 to 100 percent where 0 corresponds to no injury and 100 corresponds to complete kill. […]

[2] = system: lambsquarters (Chenopodium album); assay: General postemergence herbicidal activity, lambsquarters; details: post-emergence, 336 h, postemergence, after 14 d, 0 = no injury, 100 = complete kill, read-out: CHEAL % Visual Injury; for pest or weed control at 140 g/ha: 140 g ai/ha; for pest or weed control at 70 g/ha: 70 g ai/ha
Outline: (§4)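 Greenhouse plants at first to second true leaf stage sprayed overhead at 187 L/ha in acetone/DMSO with crop oil concentrate and surfactant, at a high rate plus ½× to 1/16× serial dilutions. Injury rated visually after 14 d against solvent-blank controls, 0 (none) to 100% (complete kill).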

[3] = system: lambsquarters (Chenopodium album); assay: Postemergence herbicidal activity in corn, lambsquarters; details: corn test, visual rating after 21 d, probit analysis, dose to kill or control 80 percent
Description: as §1, §2, §3

[4] = system: corn (Zea mays); assay: General postemergence herbicidal activity, corn; details: post-emergence, 336 h, postemergence, after 14 d, 0 = no injury, 100 = complete kill, read-out: ZEAMX % Visual Injury; for plant injury at 140 g/ha: 140 g ai/ha; for plant injury at 70 g/ha: 70 g ai/ha
Outline: as §4

[5] = system: wild buckwheat (Polygonum convululus); assay: Postemergence herbicidal activity in corn, wild buckwheat; details: corn test, visual rating after 21 d, probit analysis, dose to kill or control 80 percent
Description: as §1, §2, §3

[6] = system: wild buckwheat (Polygonum convululus); assay: General postemergence herbicidal activity, wild buckwheat; details: post-emergence, 336 h, postemergence, after 14 d, 0 = no injury, 100 = complete kill, read-out: POLCO % Visual Injury; for pest or weed control at 140 g/ha: 140 g ai/ha; for pest or weed control at 70 g/ha: 70 g ai/ha
Outline: as §4

[7] = system: velvetleaf (Abutilon theophrasti); assay: General postemergence herbicidal activity, velvetleaf; details: post-emergence, 336 h, postemergence, after 14 d, 0 = no injury, 100 = complete kill, read-out: ABUTH % Visual Injury; for pest or weed control at 140 g/ha: 140 g ai/ha; for pest or weed control at 70 g/ha: 70 g ai/ha
Outline: as §4

[8] = system: pigweed, redroot (Amaranthus retroflexus); assay: Postemergence herbicidal activity in corn, redroot pigweed; details: corn test, visual rating after 21 d, probit analysis, dose to kill or control 80 percent
Description: as §1, §2, §3

[9] = system: sicklepod (Casia obtusifolia); assay: Postemergence herbicidal activity in corn, sicklepod; details: corn test, visual rating after 21 d, probit analysis, dose to kill or control 80 percent
Description: as §1, §2, §3

[10] = system: lambsquarters (Chenopodium album); assay: Postemergence herbicidal activity in sugar beet, lambsquarters; set-up: unit not given here; details: sugar beet test, visual rating after 21 d, probit analysis, dose to kill or control 80 percent
Description: as §1, with “sugar beet” for “corn”, “MetroMix®” for “MetroMix”, “15-28” for “7-21”, “third or fourth” for “second”, “fourth” for “first or second”
(§5) A weighed amount, determined by the highest rate to be tested, of each test compound was dissolved in 4 mL of a 97:3 v/v mixture of acetone and DMSO to obtain concentrated stock solutions. […] The concentrated stock solutions obtained were diluted with 20 mL of an aqueous mixture containing acetone, water and Agri-Dex crop oil concentrate, in a 16.7:82.1:1.25 v/v ratio to obtain spray solutions containing the highest application rates. Additional application rates were obtained by serial dilution of 12 mL of the high rate solution into a solution containing 2 mL of 97:3 v/v mixture of acetone and DMSO and 10 mL of an aqueous mixture containing acetone, water and Agri-Dex crop oil concentrate, in a 16.7:82.1:1.25 v/v ratio to obtain ½×, ¼×, ⅛× and 1/16× rates of the high rate. Compound requirements are based upon a 12 mL application volume at a rate of 187 L/ha. Formulated compounds were applied to the plant material with an overhead Mandel track sprayer equipped with 8002E nozzles calibrated to deliver 187 L/ha over an application area of 0.503 m^2 at a spray height of 18 inches (43 cm) above the average plant canopy height. Control plants were sprayed in the same manner with the solvent blank.
(§6) The treated plants and control plants were placed in a greenhouse as described above and watered by sub-irrigation to prevent wash-off of the test compounds. After 21 d, the condition of the test plants as compared with that of the untreated plants was determined visually and scored on a scale of 0 to 100 percent where 0 corresponds to no injury and 100 corresponds to complete kill.
(§7) By applying the well-accepted probit analysis as described by J. Berkson in Journal of the American Statistical Society 1953, 48, 565, and by D. Finney in “Probit Analysis” Cambridge University Press (1952), the above data can be used to calculate GR20 and GR80 values, which are defined as growth reduction factors that correspond to the effective dose of herbicide required to kill or control 20 percent or 80 percent, respectively, of a target plant.

[11] = system: lambsquarters (Chenopodium album); assay: Postemergence herbicidal activity in oilseed rape (canola), lambsquarters; set-up: unit: g ai/ha; details: oilseed rape (canola) test, visual rating after 21 d, probit analysis, dose to kill or control 80 percent
Description: as §1, with “oilseed rape (canola)” for “corn”, “MetroMix®” for “MetroMix”, “15-28” for “7-21”, “third or fourth” for “second”, “fourth” for “first or second”
as §5, §6, §7

[12] = system: purple deadnettle (Lamium purpureum); assay: Postemergence herbicidal activity in oilseed rape (canola), purple deadnettle; set-up: unit not given here; details: oilseed rape (canola) test, visual rating after 21 d, probit analysis, dose to kill or control 80 percent
Description: as §1, with “oilseed rape (canola)” for “corn”, “MetroMix®” for “MetroMix”, “15-28” for “7-21”, “third or fourth” for “second”, “fourth” for “first or second”
as §5, §6, §7

[13] = system: purple deadnettle (Lamium purpureum); assay: Postemergence herbicidal activity in sugar beet, purple deadnettle; set-up: unit not given here; details: sugar beet test, visual rating after 21 d, probit analysis, dose to kill or control 80 percent
Description: as §1, with “sugar beet” for “corn”, “MetroMix®” for “MetroMix”, “15-28” for “7-21”, “third or fourth” for “second”, “fourth” for “first or second”
as §5, §3

[14] = system: sugar beet (Beta vulgaris); assay: Postemergence herbicidal activity in sugar beet, crop; set-up: unit not given here; details: visual rating after 21 d, probit analysis, dose to kill or control 20 percent
Description: as §1, with “sugar beet” for “corn”, “MetroMix®” for “MetroMix”, “15-28” for “7-21”, “third or fourth” for “second”, “fourth” for “first or second”
as §5, §6, §7

[15] = system: winter oilseed rape (canola) (Brassica napus); assay: Postemergence herbicidal activity in oilseed rape (canola), crop; set-up: unit not given here; details: visual rating after 21 d, probit analysis, dose to kill or control 20 percent
Description: as §1, with “oilseed rape (canola)” for “corn”, “MetroMix®” for “MetroMix”, “15-28” for “7-21”, “third or fourth” for “second”, “fourth” for “first or second”
as §5, §6, §7

Compound	pest or weed control at 140 g/ha [2] [%]	plant injury at 140 g/ha [4] [%]	pest or weed control at 140 g/ha [6] [%]	pest or weed control at 140 g/ha [7] [%]	CHEAL GR80 [10]	CHEAL GR80 [11]	LAMPU GR80 [12]	LAMPU GR80 [13]	BEAVA GR20 [14]	BRSNW GR20 [15]	pest or weed control at 70 g/ha [2] [%]	plant injury at 70 g/ha [4] [%]	pest or weed control at 70 g/ha [6] [%]	pest or weed control at 70 g/ha [7] [%]	also measured
C=CCONC(=O)c1nc(-c2ccc(Cl)c(OC)c2F)cc(N)c1Cl [Compound 3, N-(2-Propenyloxy)-4-amino-3-chloro-6-(4-chloro-2-fluoro-3-methoxyphenyl)picolinamide]	100	0	100	100											ZEAMX GR20 [1]: >35 g ai/ha; CHEAL GR80 [3]: <4 g ai/ha; POLCO GR80 [5]: <4 g ai/ha; AMARE GR80 [8]: 5 g ai/ha; CASOB GR80 [9]: 5 g ai/ha
CCONC(=O)c1nc(-c2ccc(Cl)c(OC)c2F)cc(N)c1Cl [Compound 4, 4-Amino-3-chloro-6-(4-chloro-2-fluoro-3-methoxyphenyl)-N-ethoxypicolinamide]	100	0	100	100	<8.75	11	<4.38	<4.38	>140	>140					
C/C=C/CONC(=O)c1nc(-c2ccc(Cl)c(OC)c2F)cc(N)c1Cl [Compound 30, (E)-4-Amino-N-(2-butenyloxy)-3-chloro-6-(4-chloro-2-fluoro-3-methoxy-phenyl)picolinamide]					<8.75	<8.75	<4.38	<4.38	>140	>70	100	50	100	100	
COc1c(Cl)ccc(-c2cc(N)c(Cl)c(C(=O)NOC/C=C/Cl)n2)c1F [Compound 31, (E)-4-Amino-3-chloro-6-(4-chloro-2-fluoro-3-methoxyphenyl)-N-(3-chloro-2-propenyl-oxy)picolinamide]					<8.75				>140		100	5	100	100	
C=CCONC(=O)c1nc(-c2ccc(Cl)c(OC)c2F)c(F)c(N)c1Cl [Compound 39, N-(2-Propenyloxy)-4-amino-3-chloro-6-(4-chloro-2-fluoro-3-methoxyphenyl)-5-fluoropicolinamide]						49	<8.75			>70					pest or weed control at 17.5 g/ha ([2]; 17.5 g ai/ha): 100%; plant injury at 17.5 g/ha ([4]; 17.5 g ai/ha): 45%; pest or weed control at 17.5 g/ha ([6]; 17.5 g ai/ha): 100%; pest or weed control at 17.5 g/ha ([7]; 17.5 g ai/ha): 100%
COc1c(Cl)ccc(-c2cc(N)c(Cl)c(C(=O)NOCc3cnc(Cl)s3)n2)c1F [Compound 41, 4-Amino-3-chloro-6-(4-chloro-2-fluoro-3-methoxyphenyl)-N-((2-chlorothiazol-5-yl)-methoxy)picolinamide]					30			<4.38	136		100	5	100	100	
COc1c(Cl)ccc(-c2nc(C(=O)NOC3CCCCO3)c(Cl)c(N)c2F)c1F (centres unmarked) [Compound 48, 4-Amino-3-chloro-6-(4-chloro-2-fluoro-3-methoxyphenyl)-5-fluoro-N-(tetrahydro-2H-pyran-2-yloxy)picolinamide]	100	0	100	100		18	<4.38			>70					
